# Test results as given in patent US10597388B2, “Pyridazinone herbicides” (FMC CORPORATION, priority 2014, dated 2020).
# Assays:
# Assay type in all cases: in vivo
# [1] = test system: barnyardgrass (Echinochloa crus-galli); experiment: Test A greenhouse herbicide test, pre- and postemergence
# Outline: (§1)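 Seeds in loam–sand blend received a preemergence directed soil spray; plants at 2–10 cm, one- to two-leaf stage, received postemergence sprays. Compounds in a non-phytotoxic solvent with surfactant. After about 10 d in a greenhouse, injury rated visually versus untreated controls on a 0–100 scale (100 = complete control).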
# [2] = test system: corn (Zea mays); experiment: as above; conditions: Postemergence; for Corn plant response rating: 0 is no effect, 100 is complete control
# Outline: as §1
# [3] = test system: foxtail, giant (giant foxtail, Setaria faberii); experiment: as above
# Outline: as §1
# [4] = test system: kochia (Kochia scoparia); experiment: as above
# Outline: as §1
# [5] = test system: pigweed (Amaranthus retroflexus); experiment: as above
# Outline: as §1
# [6] = test system: ragweed (common ragweed, Ambrosia elatior); experiment: as above
# Outline: as §1
# [7] = test system: ryegrass, Italian (Italian ryegrass, Lolium multiflorum); experiment: as above
# Outline: as §1
# [8] = test system: wheat (Triticum aestivum); experiment: as above; conditions: Postemergence; for Wheat plant response rating: 0 is no effect, 100 is complete control
# Outline: as §1
# [9] = test system: blackgrass (Alopecurus myosuroides); experiment: Test A greenhouse herbicide test, postemergence; conditions: for Blackgrass plant response rating: 0 is no effect, 100 is complete control
# Outline: (§2)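 Pot-grown plants (loam soil/sand blend), 2–10 cm tall at the one- to two-leaf stage, received postemergence sprays of formulated test chemical. After about 10 d in the greenhouse, injury was rated visually against untreated controls on a 0 (no effect) to 100 (complete control) scale.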
# [10] = test system: galium (catchweed bedstraw, Galium aparine); experiment: Test A greenhouse herbicide test, postemergence; conditions: for Galium plant response rating: 0 is no effect, 100 is complete control
# Outline: as §2
# [11] = test system: barnyardgrass (Echinochloa crus-galli); experiment: Test B flooded paddy test; conditions: 250 g ai/ha, Flood; visual rating on scale of 0 to 100 where 0 is no effect and 100 is complete control; 13 to 15 d after treatment
# Outline: (§3)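 Plants grown to the 2-leaf stage. At treatment, pots were flooded to 3 cm above the soil, compound was applied directly to the paddy water, and that depth was held throughout. After 13 to 15 d in the greenhouse, response was rated visually against controls on a 0 (no effect) to 100 (complete control) scale.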
# [12] = test system: ducksalad (Heteranthera limosa); experiment: Test B flooded paddy test; conditions: 250 g ai/ha, Flood; visual rating on scale of 0 to 100 where 0 is no effect and 100 is complete control; 13 to 15 d after treatment
# Outline: as §3
# [13] = test system: rice (Oryza sativa); experiment: Test B flooded paddy test; conditions: 250 g ai/ha, Flood; visual rating on scale of 0 to 100 where 0 is no effect and 100 is complete control; 13 to 15 d after treatment
# Outline: as §3
# [14] = test system: sedge, umbrella (small-flower umbrella sedge, Cyperus difformis); experiment: Test B flooded paddy test; conditions: 250 g ai/ha, Flood; visual rating on scale of 0 to 100 where 0 is no effect and 100 is complete control; 13 to 15 d after treatment
# Outline: as §3
# [15] = Postemergence, 125 g ai/ha, 0 to 100 scale, 0 no effect, 100 complete control
# [16] = Postemergence, 500 g ai/ha, visual rating after approx. 10 d, 0 to 100 scale (0 no effect, 100 complete control)
# [17] = Preemergence, 125 g ai/ha, visual injury rating, 0 to 100 scale (0 no effect, 100 complete control), approx. 10 d
# [18] = Preemergence, 500 g ai/ha, 0 to 100 scale where 0 is no effect and 100 is complete control
# [19] = 125 g ai/ha, 0 to 100 scale, 0 no effect, 100 complete control
# [20] = 500 g ai/ha, visual rating after approx. 10 d, 0 to 100 scale (0 no effect, 100 complete control)
# [21] = Postemergence, 125 g ai/ha, 0 to 100 scale where 0 is no effect and 100 is complete control
# [22] = Postemergence, 500 g ai/ha, 0 to 100 scale, 0 is no effect, 100 is complete control
# [23] = Preemergence, 125 g ai/ha, 0 to 100 scale where 0 is no effect and 100 is complete control
# [24] = Preemergence, 500 g ai/ha, 0 to 100 scale, 0 no effect, 100 complete control
# [25] = 125 g ai/ha, 0 to 100 scale where 0 is no effect and 100 is complete control
compound,measurement,setting,value
Cc1cc(C)c2sc(C)c(-c3c(OC(=O)N4CCOCC4)c(C)nn(C)c3=O)c2c1 [Compound 174],"Plant response rating, Barnyardgrass",[1]; [15],0
same,"Plant response rating, Barnyardgrass",[1]; [16],10
same,"Plant response rating, Barnyardgrass",[1]; [17],0
same,"Plant response rating, Barnyardgrass",[1]; [18],0
same,"Plant response rating, Corn",[2]; [19],0
same,"Plant response rating, Corn",[2]; [20],0
same,"Plant response rating, Foxtail, Giant",[3]; [15],0
same,"Plant response rating, Foxtail, Giant",[3]; [16],10
same,"Plant response rating, Foxtail, Giant",[3]; [17],0
same,"Plant response rating, Foxtail, Giant",[3]; [18],10
same,"Plant response rating, Kochia",[4]; [15],0
same,"Plant response rating, Kochia",[4]; [16],0
same,"Plant response rating, Kochia",[4]; [17],0
same,"Plant response rating, Kochia",[4]; [18],0
same,"Plant response rating, Pigweed",[5]; [15],40
same,"Plant response rating, Pigweed",[5]; [16],60
same,"Plant response rating, Pigweed",[5]; [17],0
same,"Plant response rating, Pigweed",[5]; [18],20
same,"Plant response rating, Ragweed",[6]; [15],20
same,"Plant response rating, Ragweed",[6]; [16],20
same,"Plant response rating, Ragweed",[6]; [17],0
same,"Plant response rating, Ragweed",[6]; [18],0
same,"Plant response rating, Ryegrass, Italian",[7]; [15],10
same,"Plant response rating, Ryegrass, Italian",[7]; [16],40
same,"Plant response rating, Ryegrass, Italian",[7]; [17],0
same,"Plant response rating, Ryegrass, Italian",[7]; [18],0
same,"Plant response rating, Wheat",[8]; [19],0
same,"Plant response rating, Wheat",[8]; [20],0
same,"Plant response rating, Blackgrass",[9]; [19],0
same,"Plant response rating, Blackgrass",[9]; [20],0
same,"Plant response rating, Galium",[10]; [19],30
same,"Plant response rating, Galium",[10]; [20],80
same,"Plant response rating, Barnyardgrass",[11],0
same,"Plant response rating, Ducksalad",[12],0
same,"Plant response rating, Rice",[13],0
same,"Plant response rating, Sedge, Umbrella",[14],0
Cc1nn(C)c(=O)c(-c2c(C)n(C)c3ccc(Cl)cc23)c1O [Compound 74],"Plant response rating, Barnyardgrass",[1]; [21],0
same,Barnyardgrass plant response rating,[1]; [22],10
same,Barnyardgrass plant response rating,[1]; [23],0
same,"Plant response rating, Barnyardgrass",[1]; [24],0
same,"Plant response rating, Corn",[2]; [25],0
same,Corn plant response rating,"[2]; 500 g ai/ha, 0 to 100 scale",0
same,"Plant response rating, Foxtail, Giant",[3]; [21],0
same,"Foxtail, Giant plant response rating",[3]; [22],20
same,"Foxtail, Giant plant response rating",[3]; [23],0
same,"Plant response rating, Foxtail, Giant",[3]; [18],0
same,"Plant response rating, Kochia",[4]; [21],30
same,Kochia plant response rating,[4]; [22],30
same,Kochia plant response rating,[4]; [23],0
same,"Plant response rating, Kochia",[4]; [18],0
same,"Plant response rating, Pigweed",[5]; [21],40
same,Pigweed plant response rating,[5]; [22],50
same,Pigweed plant response rating,[5]; [23],30
same,"Plant response rating, Pigweed",[5]; [18],50
same,"Plant response rating, Ragweed",[6]; [21],0
same,Ragweed plant response rating,[6]; [22],10
same,Ragweed plant response rating,[6]; [23],0
same,"Plant response rating, Ragweed",[6]; [18],0
same,"Plant response rating, Ryegrass, Italian",[7]; [21],0
same,"Ryegrass, Italian plant response rating",[7]; [22],0
same,"Ryegrass, Italian plant response rating",[7]; [23],0
same,"Plant response rating, Ryegrass, Italian",[7]; [18],0
same,"Plant response rating, Wheat",[8]; [25],0
same,Wheat plant response rating,"[8]; 500 g ai/ha, 0 to 100 scale",0
same,"Plant response rating, Blackgrass",[9]; [25],20
same,Blackgrass plant response rating,"[9]; 500 g ai/ha, 0 to 100 scale",40
same,"Plant response rating, Galium",[10]; [25],10
same,Galium plant response rating,"[10]; 500 g ai/ha, 0 to 100 scale",20
same,"Plant response rating, Barnyardgrass",[11],0
same,"Plant response rating, Ducksalad",[12],0
same,"Plant response rating, Rice",[13],0
same,"Plant response rating, Sedge, Umbrella",[14],0
Cc1ccc2c(-c3c(O)c(C)nn(C)c3=O)c(C)ccc2c1 [Compound 110],"Plant response rating, Barnyardgrass",[1]; [21],0
same,"Plant response rating, Barnyardgrass",[1]; [16],10
same,Barnyardgrass plant response rating,[1]; [23],0
same,"Plant response rating, Barnyardgrass",[1]; [18],20
same,"Plant response rating, Corn",[2]; [25],0
same,"Plant response rating, Corn",[2]; [20],20
same,"Plant response rating, Foxtail, Giant",[3]; [21],0
same,"Plant response rating, Foxtail, Giant",[3]; [16],10
same,"Foxtail, Giant plant response rating",[3]; [23],10
same,"Plant response rating, Foxtail, Giant",[3]; [18],40
same,"Plant response rating, Kochia",[4]; [21],50
same,"Plant response rating, Kochia",[4]; [16],70
same,Kochia plant response rating,[4]; [23],0
same,"Plant response rating, Kochia",[4]; [18],100
same,"Plant response rating, Pigweed",[5]; [21],70
same,"Plant response rating, Pigweed",[5]; [16],90
same,Pigweed plant response rating,[5]; [23],90
same,"Plant response rating, Pigweed",[5]; [18],100
same,"Plant response rating, Ragweed",[6]; [21],60
same,"Plant response rating, Ragweed",[6]; [16],100
same,Ragweed plant response rating,[6]; [23],30
same,"Plant response rating, Ragweed",[6]; [18],40
same,"Plant response rating, Ryegrass, Italian",[7]; [21],70
same,"Plant response rating, Ryegrass, Italian",[7]; [16],90
same,"Ryegrass, Italian plant response rating",[7]; [23],20
same,"Plant response rating, Ryegrass, Italian",[7]; [18],80
same,"Plant response rating, Wheat",[8]; [25],0
same,"Plant response rating, Wheat",[8]; [20],40
same,"Plant response rating, Blackgrass",[9]; [25],20
same,"Plant response rating, Blackgrass",[9]; [20],60
same,"Plant response rating, Galium",[10]; [25],70
same,"Plant response rating, Galium",[10]; [20],90
same,"Plant response rating, Barnyardgrass",[11],0
same,"Plant response rating, Ducksalad",[12],0
same,"Plant response rating, Rice",[13],0
same,"Plant response rating, Sedge, Umbrella",[14],0
COC(=O)Oc1c(C)nn(C)c(=O)c1-c1ccc(Cl)c2ccccc12 [Compound 63],"Plant response rating, Barnyardgrass",[1]; [21],60
same,Barnyardgrass plant response rating,[1]; [22],90
same,Barnyardgrass plant response rating,[1]; [23],80
same,"Plant response rating, Barnyardgrass",[1]; [24],90
same,"Plant response rating, Corn",[2]; [25],0
same,Corn plant response rating,"[2]; 500 g ai/ha, 0 to 100 scale",40
same,"Plant response rating, Foxtail, Giant",[3]; [21],70
same,"Foxtail, Giant plant response rating",[3]; [22],90
same,"Foxtail, Giant plant response rating",[3]; [23],40
same,"Plant response rating, Foxtail, Giant",[3]; [24],70
same,"Plant response rating, Kochia",[4]; [21],100
same,Kochia plant response rating,[4]; [22],100
same,Kochia plant response rating,[4]; [23],100
same,"Plant response rating, Kochia",[4]; [24],100
same,"Plant response rating, Pigweed",[5]; [21],100
same,Pigweed plant response rating,[5]; [22],100
same,Pigweed plant response rating,[5]; [23],100
same,"Plant response rating, Pigweed",[5]; [24],100
same,"Plant response rating, Ragweed",[6]; [21],100
same,Ragweed plant response rating,[6]; [22],100
same,Ragweed plant response rating,[6]; [23],80
same,"Plant response rating, Ragweed",[6]; [24],90
same,"Plant response rating, Ryegrass, Italian",[7]; [21],100
same,"Ryegrass, Italian plant response rating",[7]; [22],100
same,"Ryegrass, Italian plant response rating",[7]; [23],100
same,"Plant response rating, Ryegrass, Italian",[7]; [24],100
same,"Plant response rating, Wheat",[8]; [25],0
same,Wheat plant response rating,"[8]; 500 g ai/ha, 0 to 100 scale",40
same,"Plant response rating, Blackgrass",[9]; [25],70
same,Blackgrass plant response rating,"[9]; 500 g ai/ha, 0 to 100 scale",80
same,"Plant response rating, Galium",[10]; [25],100
same,Galium plant response rating,"[10]; 500 g ai/ha, 0 to 100 scale",100
same,"Plant response rating, Barnyardgrass",[11],0
same,"Plant response rating, Ducksalad",[12],30
same,"Plant response rating, Rice",[13],0
same,"Plant response rating, Sedge, Umbrella",[14],65
